Legend:
[1] = molecular target: T1, human GPR40 (Homo sapiens, UniProt O14842, R211H); assay: Measurement of GPR40 agonistic activity (intracellular calcium, FLIPR, CHO cell line expressing human GPR40); format: cell-based; settings: change in fluorescence intensity one minute after measurement
T1 construct: expressed in transfected cells; host or cells: CHO dhfr- cells stably transfected with plasmid pEF-BOS-dhfr-GPR40
Text: Test Method 1: Measurement of GPR40 Agonistic Activity i) Cloning of Human GPR40
In accordance with procedures as described below, the full-length sequence of GPR40 was obtained by a polymerase chain reaction (PCR) to set human genomic DNA (Clontech) as a template.
Oligonucleotide which consists of a base sequence represented by SEQ ID NO. 1 was used as a forward primer, and oligonucleotide which consists of a base sequence represented by SEQ ID NO. 2 was used as a reverse primer. To each 5′ terminus of the forward primer and the reverse primer described above, a base sequence including the XbaI recognition site is attached. In the PCR, using Taq DNA polymerase (Ex Taq DNA polymerase; TAKARA BIO INC.), a cycle consisting of 94° C. (15 sec)/55° C. (30 sec)/72° C. (1 min) was repeated 30 times in the presence of 5% DMSO. As a result, the DNA fragment of about 0.9 kbp was amplified. This DNA fragment was digested with XbaI, followed by inserting into the XbaI site of plasmid pEF-BOS-dhfr (Nucleic Acids Research, 18, 5322, 1990) to obtain plasmid pEF-BOS-dhfr-GPR40.
The base sequence of GPR40 gene in plasmid pEF-BOS-dhfr-GPR40 was decided by a dideoxy terminator method using a DNA sequencer (ABI377 DNA Sequencer; Applied Biosystems). The base sequence of GPR40 gene was the same with the base sequence represented by SEQ ID NO. 3. The base sequence represented by SEQ ID NO. […] 4 […]
ii) Preparation of GPR40 Stable Expression Cell
A CHO dhfr cell (CHO cell deleting a dihydrofolate reductase (dhfr) gene) was used as a cell in which GPR 40 protein was expressed. In addition, the plasmid pEF-BOS-dhfr-GPR40 obtained in the above i) was used as an expressing plasmid to express GPR40 protein. To a 6 well plate (Asahi Techno Glass Corp.), the CHO dhfr cells were seeded to become 80 to 90% confluent in an aMEM medium having 10% fetal calf serum (FCS), and cultivated overnight. Then, 2 μg of plasmid pEF-BOS-dhfr-GPR40 per well was transferred generetically thereto using a transfection reagent (Lipofectamine 2000; Invitrogen Corporation). After cultivating for 24 hours subsequent to the gene transfer, the cell were diluted and reseeded. On this occasion, the αMEM medium having 10% FCS was changed for an αMEM medium having 10% FCS and no nucleic acid. After 20 days cultivation, formed cell colonies were collected respectively and cultivated, thereby obtaining CHO cells stably expressing GPR40. Among these, cells high-reactive to an oleic acid and a linoleic acid which were intrinsic ligands were selected. […]
iii) Measurement of GPR40 Agonistic Activity
The GPR40 agonistic activity was measured with fluctuation of the intracellular calcium concentration as an index by FLIPR (registered trademark, Molecular Devices Corporation). Hereinafter, test methods will be described.
A CHO cell line expressing human GPR40 was seeded with 6×10^3 per well to a 384-well black plate (Becton, Dickinson and Company), and cultivated in a CO2 incubator overnight. For a luminescent pigment, a Calcium-3 assay kit (Molecular Devices Corporation) was used, and dissolved in 10 ml of a HBSS-HEPES buffer (PH7.4, 1×HBSS, 20 mM HEPES, Invitrogen Corporation) for a bottle. 35.68 mg of probenecid (Sigma) was dissolved in 250 μl of 1M NaOH, and then 250 μl of a HBSS-HEPES buffer was added to blend. 16 ml of a HBSS-HEPES buffer, 640 μl of the luminescent pigment and 32 μl of probenecid were added to blend for a solution of the luminescent pigment per plate. The medium of the plate was removed, 40 μl of the solution of the luminescent pigment per well was dispensed, followed by incubating at room temperature for 2 hours. A compound to be inspected was dissolved in DMSO, and diluted with a HBSS-HEPES buffer. A reaction was initiated by 10 μl of dispensation, the fluctuation of the intracellular calcium concentration was measured by FLIPR. An EC50 value of the compound to be inspected was calculated from the dose-response curve of change in fluorescence intensity one minute after measurement.

[2] = test system: normal mice; assay: Single oral glucose tolerance test on normal mice; format: in vivo; settings: Mus musculus; for inhibition in vivo at 10 mg/kg: 0.5 h, read-out: Reduction rate of blood glucose level (%); for minimal effective dose: read-out: MED
Experimental: Test Method 3: Single Oral Glucose Tolerance Test on Normal Mice
The anti-hyperglycemic action after glycemic load of the compound to be inspected was examined using normal mice. Hereinafter, the test method will be described.
Male ICR mice which was preparedly reared for one week (6-week-old) was fasted overnight, and used as an animal to be inspected. A compound to be inspected was 0.5% methylcellulose suspension, and the suspension was orally administered 30 minutes before the glucose (2 g/kg) load. With regard to some compounds to be inspected, prior blood drawing was performed (0 min value), and blood glucose levels were measured at 5, 15, 30, 60 and 120 minutes later glucose load when the compound to be inspected was orally administered. A control group was given 0.5% methylcellulose. The evaluation was carried out in the following manner. (Evaluation 1) The reduction rate of blood glucose levels after glucose loading (%) with respect to the control group was calculated at a point of glucose load which is 30 minutes after the oral administration of 10 mg/kg of the compound to be inspected. […] Ex represents example compound numbers.
(Evaluation 2) The reduction rate of blood glucose levels after glucose loading (%) with respect to the control group was calculated at a point of glucose load which is 30 minutes after the oral administration of 10, 3, 1, 0.3 or 0.1 mg/kg of the compound to be inspected. […] Ex represents example compound numbers. In addition, MED describing “below” in Table 3 means that a test was not carried out due to less than dose described.
The area under the blood concentration-time curve (AUC) of blood glucose levels for 0 to 120 minute(s) was calculated from the blood glucose levels before the blood drawing, and the blood glucose levels at 5, 15, 30, 60, and 120 minutes after the glucose load when 30, 10, 3, 1 or 0.3 mg/kg of the compound to be inspected was orally administered.

T1 sequence (O14842 whole entry R211H): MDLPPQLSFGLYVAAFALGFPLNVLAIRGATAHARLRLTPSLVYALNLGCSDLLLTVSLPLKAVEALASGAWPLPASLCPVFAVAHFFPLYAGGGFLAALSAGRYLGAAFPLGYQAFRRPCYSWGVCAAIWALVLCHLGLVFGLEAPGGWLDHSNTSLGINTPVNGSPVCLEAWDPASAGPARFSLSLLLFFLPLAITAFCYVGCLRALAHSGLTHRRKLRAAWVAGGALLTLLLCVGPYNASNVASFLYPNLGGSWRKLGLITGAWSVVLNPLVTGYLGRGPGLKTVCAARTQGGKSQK

| Structure (SMILES) | EC50 [1] [nM] | inhibition in vivo at 10 mg/kg [2] [%] | minimal effective dose [2] [mg/kg] |
| --- | --- | --- | --- |
| Cc1cc(OC[C@@H](O)CO)cc(C)c1-c1cccc(COc2ccc(Cn3oc(=O)[n-]c3=O)cc2)c1C.[Na+] [Example 7] | 410 | 30 | 10 |
| Cc1cc(OCCCNC(=O)C2CC2)cc(C)c1-c1cccc(COc2ccc(Cn3oc(=O)[n-]c3=O)cc2)c1C.[Na+] [Example 21] | 600 | 26 | 3 |
| Cc1cc(OC[C@H](O)CO)cc(C)c1-c1cccc(COc2ccc(Cn3oc(=O)[n-]c3=O)cc2)c1C.[Na+] [Example 26] | 410 | 27 | 10 |
| Cc1c(COc2ccc(Cn3oc(=O)[n-]c3=O)cc2)cccc1-c1cccc(OCCC(C)(C)O)c1C.[Na+] [Example 27] | 230 | 42 | 1 |
| Cc1cc(-c2cccc(COc3ccc(Cn4oc(=O)[n-]c4=O)cc3)c2C)c(C)cc1OCCC(C)(C)O.[Na+] [Example 31] | 69 | 50 | 1 |
| Cc1c(COc2ccc(Cn3oc(=O)[n-]c3=O)cc2)cccc1-c1ccc(OCCC(C)(C)O)c(C)c1C.[Na+] [Example 32] | 68 | 47 | 1 |
| Cc1cc(OCC[C@@H](C)O)cc(C)c1-c1cccc(COc2ccc(Cn3oc(=O)[n-]c3=O)cn2)c1C.[Na+] [Example 44] | 190 | 34 | < 0.3 |
| Cc1cc(OCC[C@H](C)O)cc(C)c1-c1cccc(COc2ccc(Cn3oc(=O)[n-]c3=O)cn2)c1C.[Na+] [Example 45] | 280 | 35 | 1 |
| COC[C@@H](O)COc1cc(C)c(-c2cccc(COc3ccc(Cn4oc(=O)[n-]c4=O)cc3)c2C)c(C)c1.[Na+] [Example 56] | 820 | 29 | 3 |
| Cc1cc(OCCC(C)(C)O)nc(C)c1-c1cccc(COc2ccc(Cn3oc(=O)[n-]c3=O)cc2)c1C.[Na+] [Example 60] | 160 | 45 | < 3 |
| Cc1cc(-c2cccc(COc3ccc(Cn4oc(=O)[n-]c4=O)cc3)c2C)c(C)cc1OCCO.[Na+] [Example 63] | 380 | 22 | < 1 |
| Cc1cc(OC[C@@H](O)CO)cc(C)c1-c1cccc(CNc2ccc(Cn3oc(=O)[n-]c3=O)cc2)c1C.[Na+] [Example 68] | 22 | 23 | 3 |
| Cc1cc(OC[C@H](O)CO)cc(C)c1-c1cccc(CNc2ccc(Cn3oc(=O)[n-]c3=O)cc2)c1C.[Na+] [Example 69] | 69 | 34 | 1 |
| Cc1cc(OCCO)cc(C)c1-c1cccc(CNc2ccc(Cn3oc(=O)[n-]c3=O)cc2)c1C.[Na+] [Example 70] | 70 | 31 | 10 |
| CO[C@@H](CO)COc1cc(C)c(-c2cccc(COc3ccc(Cn4oc(=O)[n-]c4=O)cc3)c2C)c(C)c1.[Na+] [Example 74] | 320 | 23 | 3 |
| Cc1cc(OCCO)cc(C)c1-c1cccc(CNc2ccc(Cn3oc(=O)[n-]c3=O)cn2)c1C.[Na+] [Example 80] | 250 | 26 | 10 |
| Cc1cc(OCC[C@@H](C)O)nc(C)c1-c1cccc(CNc2ccc(Cn3oc(=O)[n-]c3=O)cc2)c1C.[Na+] [Example 81] | 160 | 33 | < 3 |
| Cc1cc(OCC[C@@H](C)O)nc(C)c1-c1cccc(COc2ccc(Cn3oc(=O)[n-]c3=O)cc2)c1C.[Na+] [Example 84] | 280 | 35 | < 3 |
| Cc1cc(OCCO)c(F)cc1-c1cccc(CNc2ccc(Cn3oc(=O)[n-]c3=O)cc2)c1C.[Na+] [Example 85] | 420 | 24 | 3 |
| Cc1cc(-c2cccc(CNc3ccc(Cn4oc(=O)[n-]c4=O)cc3)c2C)c(C)nc1OCCO.[Na+] [Example 89] | 110 | 25 | 3 |
| Cc1cc(OCCO)c(F)cc1-c1cccc(COc2ccc(Cn3oc(=O)[n-]c3=O)cc2)c1C.[Na+] [Example 94] | 640 | 39 | 3 |
| Cc1cc(-c2cccc(CNc3ccc(Cn4oc(=O)[n-]c4=O)cc3)c2C)c(C)cc1OC[C@@H](O)CO.[Na+] [Example 96] | 190 | 23 | 10 |
| Cc1cc(-c2cccc(CNc3ccc(Cn4oc(=O)[n-]c4=O)cc3)c2C)c(C)cc1OC[C@H](O)CO.[Na+] [Example 97] | 190 | 29 | 10 |
| Cc1cc(OCC[C@@H](O)CO)cc(C)c1-c1cccc(CNc2ccc(Cn3oc(=O)[n-]c3=O)cc2)c1C.[Na+] [Example 101] | 230 | 39 | 3 |
| Cc1cc(OCC[C@H](O)CO)cc(C)c1-c1cccc(CNc2ccc(Cn3oc(=O)[n-]c3=O)cc2)c1C.[Na+] [Example 102] | 230 | 48 | 10 |
| Cc1c(CNc2ccc(Cn3oc(=O)[nH]c3=O)cc2)cccc1-c1cccc(OCCO)c1C [Example 107] | 93 | – | – |
| CCC(=O)NCCCOc1cc(C)c(-c2cccc(COc3ccc(Cn4oc(=O)[n-]c4=O)cc3)c2C)c(C)c1.[Na+] [Example 119] | 810 | 26 | 3 |

— patent US20100267775A1, “OXADIAZOLIDINEDIONE COMPOUND” (priority 2007, published 2010)
